Data as given in patent US8354428B2, “Solid state forms of laquinimod and its sodium salt” (Actavis Group PTC EHF, priority 2008, dated 2013).

How the values were obtained:
Assay type in all cases: physicochemical
[1] = Bulk density method of analysis; details: about 10 g sample in 25 mL measuring cylinder
Procedure: (§1) The X-Ray powder diffraction was measured by an X-ray powder diffractometer equipped with a Cu-anode (λ=1.54 Angstrom), X-ray source operated at 40 kV, 40 mA and a Ni filter is used to strip K-beta radiation. Two-theta calibration is performed using an NIST SRM 1976, Corundum standard. The sample was analyzed using the following instrument parameters: measuring range=3-45° 20; step width=0.01579°; and measuring time per step=0.11 second. Infra-Red Spectroscopy (FT-IR): FT-IR spectroscopy was carried out with a Perkin Elmer Spectrum 100 series spectrometer. For the production of the KBr compacts approximately 2 mg of sample was powdered with 200 mg of KBr. The spectra were recorded in transmission mode ranging from 3800 to 450 cm^−1. Differential Scanning Calorimetry (DSC): DSC (Differential Scanning calorimetry) measurements were performed with a Differential Scanning calorimeter (Perkin Elmer diamond DSC) at a scan rate of 10° C. per minute. Bulk Density Method of Analysis About 10 g of sample was placed in a 25 mL measuring cylinder and measured the volume using the following formula: Bulk density=Weight of the sample (g)/Volume of the sample (mL) Tap Density Method of Analysis

[2] = Tap density method of analysis (Sotax tapping instrument, USP II); details: about 10 g sample, tapped to constant volume
Procedure: About 10 g of sample was placed in a 25 mL measuring cylinder and measured the initial volume. The measuring cylinder was kept in a Sotax Tapping instrument (USP II) and measured the volume of the sample every 50 tappings until a constant volume is obtained using the following formula: Tap Density=Weight of the sample (g)/constant Volume of the sample after tapping (mL)

[3] = Particle size distribution by laser diffraction (Malvern Master Sizer 2000); details: 90 volume-percent of particles below this diameter
From the text: As used herein, “Particle Size Distribution (P.S.D)” means the cumulative volume size distribution of equivalent spherical diameters as determined by laser diffraction in Malvern Master Sizer 2000 equipment or its equivalent. As used herein, DX means that X percent of the particles have a diameter less than a specified diameter D. Thus, a D90 or d(0.9) of less than 300 microns means that 90 volume-percent of the particles in a composition have a diameter less than 300 microns.

[4] = Polymorphic stability on storage in LDPE bag, checked by P-XRD
Procedure: as §1
Laquinimod sodium crystalline Form A1 was prepared according to the process exemplified in Example 2 and was packed in a self-sealing low-density polyethylene (LDPE) bag. […]

Bulk density [1]: 0.333 g/mL
Tapped density [2]: 0.476 g/mL
Particle size distribution d(0.9) [3]: 26.3 microns
Polymorphic stability (maintenance of the original P-XRD pattern) ([4]; stored 3 months at about 40±2° C., relative humidity about 75±5%): retain its polymorphic form
Polymorphic stability (maintenance of the original P-XRD pattern) ([4]; stored 6 months at 25±2° C., relative humidity about 60±5%): retain its polymorphic form
SMILES: CCN(C(=O)c1c(O)c2c(Cl)cccc2n(C)c1=O)c1ccccc1.[Na] [laquinimod sodium crystalline Form A1, N-ethyl-N-phenyl-1,2-dihydro-4-hydroxy-5-chloro-1-methyl-2-oxoquinoline-3-carboxamide sodium]
